Experimental findings from patent publication US20240251792A1, “WEED CONTROL METHOD” (SYNGENTA CROP PROTECTION AG, priority 2021, published 2024) are described below.

What all share (type): in vivo
Assay [1] deals with DIGSA. Nature of the assay: Biological efficacy, post-emergence glasshouse test (Table 2). Conditions: 1000 g/ha, after 12 days. Summed up: (§1)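 Spray at 1000 g/ha (acetone/water/Tween 20, 49.75:49.75:0.5); pre-emergence applied 1 d after sowing, post-emergence 7 d. Glasshouse 24/16 °C, 14 h light, 65% RH, watered twice daily. Scored at 12 d, 0–100 damage.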
Assay [2] relates to STEME. Described as above. Particulars: 1000 g/ha, after 12 days. The method in brief: as §1
For assay [3], the system named is AMARE. The description is as above. Particulars: 1000 g/ha, after 12 days. The method in brief: as §1
For assay [4], the system named is LOLPE. The description is as above. Conditions: 1000 g/ha, after 12 days. Summed up:
as §1

The test system of assay [5] is SETFA. The assay can be described thus: Pre-emergence biological efficacy (Table 3). Conditions: 1000 g/ha, after 13 days; for pest or weed control at 1000 g/ha: Setaria faberi, 312 h, read-out: evaluation (100=total damage to plant; 0=no damage to plant). Summed up: (§2)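 Seeds were sown in standard soil in pots, kept one day in a glasshouse (24/19 °C day/night, 16 h light), then sprayed with an aqueous dilution in 0.2% Genapol X080 of a 50 g/l stock in acetone/AMA emulsifier mix. Damage was scored visually after 13 days (0 = none, 100 = total).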

The subject of assay [6] is IPOHE. Nature of the assay: Pre-emergence biological efficacy (Table 3). Particulars: 1000 g/ha, after 13 days; for pest or weed control at 1000 g/ha: Ipomoea hederacea, 312 h, read-out: evaluation (100=total damage to plant; 0=no damage to plant). The method in brief:
as §2

Assay [7] deals with SOLNI. Nature of the assay: Pre-emergence biological efficacy (Table 3). Particulars: 1000 g/ha, after 13 days. Summed up:
as §2

Assay [8] concerns ECHCG. The assay can be described thus: Pre-emergence biological efficacy (Table 3). Conditions: 1000 g/ha, after 13 days; for pest or weed control at 1000 g/ha: Echinochloa crus-galli, 312 h, read-out: evaluation (100=total damage to plant; 0=no damage to plant). Summed up: as §2
Assay [9] has as its system AMARE. Nature of the assay: Pre-emergence biological efficacy (Table 3). Conditions: 1000 g/ha, after 13 days; for pest or weed control at 1000 g/ha: Amaranthus retroflexus, 312 h, read-out: evaluation (100=total damage to plant; 0=no damage to plant). The method in brief: as §2
The subject of assay [10] is LOLPE. The assay can be described thus: Pre-emergence biological efficacy (Table 3). Particulars: 1000 g/ha, after 13 days. The method in brief:
as §2

Assay [11] deals with DIGSA. The assay can be described thus: Biological efficacy, pre-emergence glasshouse test (Table 2). Particulars: 1000 g/ha, after 12 days. Summed up:
as §1

The test system of assay [12] is STEME. Described as above. Conditions: 1000 g/ha, after 12 days. The method in brief: as §1
The test system of assay [13] is AMARE. The assay is described as above. Conditions: 1000 g/ha, after 12 days. Summed up:
as §1

The subject of assay [14] is LOLPE. Described as above. Conditions: 1000 g/ha, after 12 days. Summed up: as §1
Assay [15] relates to weeds and/or crops. The assay can be described thus: Post-emergence biological efficacy (Table 4). Conditions: 1000 g/ha, evaluated after 13 days; for pest or weed control at 1000 g/ha: 312 h. The method in brief: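 Scores are visual damage (0 = none, 100 = total), read 13 days after treatment at 24/18 °C with 15 h light. Plants had been sown in standard soil and grown 14 days before a spray of compound in F50/acetone, diluted with 0.2% Genapol X080.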

Setting [16] is: Amaranthus retroflexus, AMARE, read-out: damage to plant AMARE (100=total damage; 0=no damage).
Where [17] appears, read: Echinochloa crus-galli, ECHCG, read-out: damage to plant ECHCG (100=total damage; 0=no damage).
The mark [18] stands for this setting: Ipomoea hederacea, IPOHE, read-out: damage to plant IPOHE (100=total damage; 0=no damage).
The mark [19] stands for this setting: Setaria faberi, SETFA, read-out: damage to plant SETFA (100=total damage; 0=no damage).

Like-named read-outs stand apart in the source and are kept apart here.

In the case of `COc1ccccc1C(F)(F)C(=O)O` [Compound 1-9], the “score (100=total damage to plant, 0=no damage to plant)” value in assay [1] was determined as 0; in assay [2] it was 80; in [3], 90; in [4], 0; in [11] it was 0; in assay [12], 60. Moreover, the figures for the “score (100=total damage to plant, 0=no damage to plant)” value in assay [13] and in [14] were 80 and 0, respectively. The “evaluation (100=total damage to plant; 0=no damage to plant)” value in [5] was 20; in assay [6] it was 60; in assay [7], 90; in assay [8], 20; in assay [9] it was 70; in assay [10] it was 20. In assay [15] (AMARE), the “damage to plant AMARE (100=total damage; 0=no damage)” value is recorded as 70. Moreover, the “damage to plant ECHCG (100=total damage; 0=no damage)” value in assay [15] (ECHCG) was determined as 0. Besides, the “damage to plant IPOHE (100=total damage; 0=no damage)” value in [15] (IPOHE) came to 60. Further, the “damage to plant LOLPE (100=total damage; 0=no damage)” value in assay [15] is given as 0. In [15] (SETFA), the “damage to plant SETFA (100=total damage; 0=no damage)” value was found to be 0. Also, the “damage to plant SOLNI (100=total damage; 0=no damage)” value in [15] is 60.

Consider `O=C(O)C(F)(F)c1cccc2ccccc12` [Compound 1-397, 2,2-Difluoro-2-(1-naphthyl)acetic acid], for which the “score (100=total damage to plant, 0=no damage to plant)” value turned out to be 0 in assay [1]; 80 in [2]; 70 in [3]; 0 in assay [4]; 30 in assay [11]; 90 in assay [12]. The “score (100=total damage to plant, 0=no damage to plant)” value amounted to 90 in [13] and 70 in assay [14]. In addition, the pest or weed control at 1000 g/ha in assay [5] was 20%; in assay [6], 80%; in [8], 60%; in [9], 80%; in assay [15] (setting [16]), 70%; in assay [15] (setting [17]), 20%. Also, the pest or weed control at 1000 g/ha in assay [15] (setting [18]) was determined as 70%; in assay [15] (setting [19]), 10%. For the same compound, the “evaluation (100=total damage to plant; 0=no damage to plant)” value in [7] was determined as 100; in [10], 40. Also, the “damage to plant LOLPE (100=total damage; 0=no damage)” value in assay [15] is 10. For the same compound, the “damage to plant SOLNI (100=total damage; 0=no damage)” value in [15] came out at 80.

Take `COC(=O)C(F)(F)c1c(Cl)cccc1OC` [Compound 2-65, Methyl 2-(2-chloro-6-methoxy-phenyl)-2,2-difluoro-acetate]: the pest or weed control at 1000 g/ha turned out to be 0% in assay [5]; 70% in assay [6]; 0% in [8]; 50% in assay [9]; 70% in assay [15] (setting [16]); 40% in assay [15] (setting [17]). Further, the pest or weed control at 1000 g/ha was 70% in [15] (setting [18]) and 10% in assay [15] (setting [19]). Besides, the “evaluation (100=total damage to plant; 0=no damage to plant)” value was found to be 10 in assay [7] and 0 in [10]. Moreover, in assay [15], the “damage to plant LOLPE (100=total damage; 0=no damage)” value is given as 0. Moreover, the “damage to plant SOLNI (100=total damage; 0=no damage)” value in assay [15] is on record as 30.
